Measurements published in ChEMBL document CHEMBL3885881, “DrugMatrix”.

Organism: Rattus norvegicus
Assay: DrugMatrix - Regimen: Daily Repeat
Assay type: toxicity, organism-based, Sprague-Dawley
Parameters: regimen Daily Repeat, gender Male, age 6-8 weeks
Conditions: in vivo, iv, vehicle 100 % SALINE; for ABSOLUTE BASOPHIL / ABSOLUTE EOSINOPHIL / ABSOLUTE LYMPHOCYTE / ABSOLUTE MONOCYTE / ABSOLUTE SEGMENTED NEUTROPHIL / BASOPHIL / EOSINOPHIL / ERYTHROCYTE COUNT / HEMATOCRIT / HEMOGLOBIN / LEUKOCYTE COUNT / LYMPHOCYTE / MEAN CORPUSCULAR HEMOGLOBIN / MEAN CORPUSCULAR HEMOGLOBIN CONCENTRATION / MEAN CORPUSCULAR VOLUME / MONOCYTE / NEUTROPHIL / NUCLEATED RED BLOOD CELLS / PLATELET COUNT: tissue Blood; for ALANINE AMINOTRANSFERASE / ALBUMIN / ALKALINE PHOSPHATASE / ASPARTATE AMINOTRANSFERASE / BLOOD UREA NITROGEN / CARBON DIOXIDE / CHLORIDE / CHOLESTEROL / CREATINE PHOSPHOKINASE / CREATININE / GLUCOSE / LACTATE DEHYDROGENASE / LIPASE / PHOSPHORUS / POTASSIUM / SODIUM / TOTAL BILIRUBIN / TOTAL PROTEIN / URIC ACID: tissue Plasma
[1] = 0.08 mg/kg, 120 h, dose level Low, time 5 day
[2] = 0.3 mg/kg, 72 h, dose level High, time 3 day
[3] = 0.3 mg/kg, 120 h, dose level High, time 5 day

CC[C@]1(O)C[C@@H]2CN(CCc3c([nH]c4ccccc34)[C@@](C(=O)OC)(c3cc4c(cc3OC)N(C)[C@H]3[C@@](O)(C(=O)OC)[C@H](OC(C)=O)[C@]5(CC)C=CCN6CC[C@]43[C@@H]65)C2)C1 [VINBLASTINE] was tested, and the “ABSOLUTE BASOPHIL” value [1] was 0 CELLS/uL, the “ABSOLUTE EOSINOPHIL” value [1] was 0 CELLS/uL and the “ABSOLUTE LYMPHOCYTE” value [1] was 7180.33 CELLS/uL. The “ABSOLUTE MONOCYTE” value [1] was 26.33 CELLS/uL, the “ABSOLUTE SEGMENTED NEUTROPHIL” value [1] was 293.33 CELLS/uL and the BASOPHIL [1] was 0%. For the same compound, the EOSINOPHIL [1] was 0%, the “ERYTHROCYTE COUNT” value [1] was 5.15 x10E6/uL and the HEMATOCRIT [1] was 32.43%. For the same compound, the HEMOGLOBIN [1] was 13 G/DL, the “LEUKOCYTE COUNT” value [1] was 7.5 x10E3/uL and the LYMPHOCYTE [1] was 95.67%. The “MEAN CORPUSCULAR HEMOGLOBIN” value [1] was 25.27 pg, the “MEAN CORPUSCULAR HEMOGLOBIN CONCENTRATION” value [1] was 40.07 G/DL and the “MEAN CORPUSCULAR VOLUME” value [1] was 63.1 fL. The MONOCYTE [1] was 0.33%, the NEUTROPHIL [1] was 4% and the “NUCLEATED RED BLOOD CELLS” value [1] was 0 /100WBC. For the same compound, the “PLATELET COUNT” value [1] was 1437 x10E3/uL, the “ALANINE AMINOTRANSFERASE” value [1] was 44 u/L and the ALBUMIN [1] was 3.93 G/DL. For the same compound, the “ALKALINE PHOSPHATASE” value [1] was 340.67 u/L, the “ASPARTATE AMINOTRANSFERASE” value [1] was 88.67 u/L and the “BLOOD UREA NITROGEN” value [1] was 16.67 mg/dL. The “CARBON DIOXIDE” value [1] was 28 mmol/L, the CHLORIDE [1] was 101.33 MEQ/L and the CHOLESTEROL [1] was 69.67 mg/dL. For the same compound, the “CREATINE PHOSPHOKINASE” value [1] was 599 u/L, the CREATININE [1] was 0.2 mg/dL and the GLUCOSE [1] was 212 mg/dL. For the same compound, the “LACTATE DEHYDROGENASE” value [1] was 334.67 u/L, the LIPASE [1] was 10.67 u/L and the PHOSPHORUS [1] was 13.3 mg/dL. For the same compound, the POTASSIUM [1] was 5.71 MEQ/L, the SODIUM [1] was 141.27 MEQ/L and the “TOTAL BILIRUBIN” value [1] was 0.2 mg/dL. The “TOTAL PROTEIN” value [1] was 5.83 G/DL, the “URIC ACID” value [1] was 1.77 mg/dL and the “ABSOLUTE BASOPHIL” value [2] was 0 CELLS/uL. For the same compound, the “ABSOLUTE EOSINOPHIL” value [2] was 0 CELLS/uL, the “ABSOLUTE LYMPHOCYTE” value [2] was 5650.33 CELLS/uL and the “ABSOLUTE MONOCYTE” value [2] was 34.67 CELLS/uL. The “ABSOLUTE SEGMENTED NEUTROPHIL” value [2] was 381.67 CELLS/uL, the BASOPHIL [2] was 0% and the EOSINOPHIL [2] was 0%. For the same compound, the “ERYTHROCYTE COUNT” value [2] was 4.96 x10E6/uL, the HEMATOCRIT [2] was 31.5% and the HEMOGLOBIN [2] was 12.67 G/DL. The “LEUKOCYTE COUNT” value [2] was 6.07 x10E3/uL, the LYMPHOCYTE [2] was 93% and the “MEAN CORPUSCULAR HEMOGLOBIN” value [2] was 25.5 pg. The “MEAN CORPUSCULAR HEMOGLOBIN CONCENTRATION” value [2] was 40.23 G/DL, the “MEAN CORPUSCULAR VOLUME” value [2] was 63.4 fL and the MONOCYTE [2] was 0.67%. The NEUTROPHIL [2] was 6.33%, the “NUCLEATED RED BLOOD CELLS” value [2] was 0 /100WBC and the “PLATELET COUNT” value [2] was 588.33 x10E3/uL. For the same compound, the “ALANINE AMINOTRANSFERASE” value [2] was 129 u/L, the ALBUMIN [2] was 4.03 G/DL and the “ALKALINE PHOSPHATASE” value [2] was 429 u/L. For the same compound, the “ASPARTATE AMINOTRANSFERASE” value [2] was 337.67 u/L, the “BLOOD UREA NITROGEN” value [2] was 15 mg/dL and the “CARBON DIOXIDE” value [2] was 31 mmol/L. The CHLORIDE [2] was 102 MEQ/L, the CHOLESTEROL [2] was 104 mg/dL and the “CREATINE PHOSPHOKINASE” value [2] was 645 u/L. For the same compound, the CREATININE [2] was 0.16 mg/dL, the GLUCOSE [2] was 167.33 mg/dL and the “LACTATE DEHYDROGENASE” value [2] was 246.33 u/L. The LIPASE [2] was 10.67 u/L, the PHOSPHORUS [2] was 11.6 mg/dL and the POTASSIUM [2] was 5.31 MEQ/L. The SODIUM [2] was 144.2 MEQ/L, the “TOTAL BILIRUBIN” value [2] was 0.47 mg/dL and the “TOTAL PROTEIN” value [2] was 5.83 G/DL. For the same compound, the “URIC ACID” value [2] was 1.07 mg/dL, the “ABSOLUTE BASOPHIL” value [3] was 0 CELLS/uL and the “ABSOLUTE EOSINOPHIL” value [3] was 11.33 CELLS/uL. The “ABSOLUTE LYMPHOCYTE” value [3] was 4520 CELLS/uL, the “ABSOLUTE MONOCYTE” value [3] was 22.67 CELLS/uL and the “ABSOLUTE SEGMENTED NEUTROPHIL” value [3] was 46 CELLS/uL. For the same compound, the BASOPHIL [3] was 0%, the EOSINOPHIL [3] was 0.33% and the “ERYTHROCYTE COUNT” value [3] was 5.7 x10E6/uL. The HEMATOCRIT [3] was 34.73%, the HEMOGLOBIN [3] was 13.5 G/DL and the “LEUKOCYTE COUNT” value [3] was 4.6 x10E3/uL. The LYMPHOCYTE [3] was 98%, the “MEAN CORPUSCULAR HEMOGLOBIN” value [3] was 23.7 pg and the “MEAN CORPUSCULAR HEMOGLOBIN CONCENTRATION” value [3] was 38.87 G/DL. For the same compound, the “MEAN CORPUSCULAR VOLUME” value [3] was 61.03 fL, the MONOCYTE [3] was 0.67% and the NEUTROPHIL [3] was 1%. The “NUCLEATED RED BLOOD CELLS” value [3] was 0.33 /100WBC, the “PLATELET COUNT” value [3] was 95.67 x10E3/uL and the “ALANINE AMINOTRANSFERASE” value [3] was 423.33 u/L. For the same compound, the ALBUMIN [3] was 3.6 G/DL, the “ALKALINE PHOSPHATASE” value [3] was 438.67 u/L and the “ASPARTATE AMINOTRANSFERASE” value [3] was 923 u/L. For the same compound, the “BLOOD UREA NITROGEN” value [3] was 14.67 mg/dL, the “CARBON DIOXIDE” value [3] was 33 mmol/L and the CHLORIDE [3] was 96 MEQ/L. The CHOLESTEROL [3] was 192.33 mg/dL, the “CREATINE PHOSPHOKINASE” value [3] was 622.67 u/L and the CREATININE [3] was 0.1 mg/dL. The GLUCOSE [3] was 121 mg/dL, the “LACTATE DEHYDROGENASE” value [3] was 415 u/L and the LIPASE [3] was 10.67 u/L. It also gave a PHOSPHORUS [3] of 10.6 mg/dL, a POTASSIUM [3] of 5.16 MEQ/L and an SODIUM [3] of 141.4 MEQ/L. For the same compound, the “TOTAL BILIRUBIN” value [3] was 5.67 mg/dL, the “TOTAL PROTEIN” value [3] was 5.83 G/DL and the “URIC ACID” value [3] was 0.7 mg/dL.
